Measurements from US7860552B2, “CNS assay for prediction of therapeutic efficacy for neuropathic pain and other functional illnesses” (The McLean Hospital Corporation, priority 2004, dated 2010).

Tests used:
neuropathic pain = conditions: known efficacy in human neuropathic pain; cited from earlier work
healthy subjects = assay: fMRI of CNS activation in healthy subjects after a thermal stimulus (>44° C.); assay type: in vivo, human; conditions: compared with the placebo response, FIG. 2
Description: The methods of the invention generally involve the administration of a therapeutic intervention, e.g., a compound, to a subject, e.g., a mammal such as a human, non-human primate, or a rodent (e.g., a rat or mouse). In one embodiment, an acute painful stimulus, e.g., a thermal stimulus, is then administered to the subject. An appropriate time delay may be used in order to achieve appropriate therapeutic effect in the blood and/or CNS prior to administration of the stimulus. Levels of activation of the central nervous system (CNS) of the subject are then measured, typically by a neuroimaging technique such as fMRI. When a therapeutic intervention is being evaluated for efficacy against the functional illness, the levels of activity are examined to determine whether the intervention alters activity in the CNS (FIG. 1). The levels of activity may be determined with reference to one or more specific regions of the CNS, such as those associated, either directly or indirectly with the functional illness, or a general level of activity for the entire CNS, or portion thereof, may be determined without reference to specific anatomical or functional regions. Any alteration in the level of activity may be determined relative to a control, such as levels of activity in a subject treated with placebo or a therapeutic intervention with known efficacy against the functional illness. The method is advantageous in that the subject need not be suffering from the functional illness in order to determine the efficacy of a therapeutic intervention for the illness. […]
The present invention typically employs an imaging technique for measuring the level of activation of the CNS, e.g., by determining blood flow in the CNS. […] In addition, the imaging methods may also be employed to determine a general level of activation for the CNS, e.g., measured as the total number of activated voxels., without regard to the specific regions involved. […]

rats = assay: fMRI of CNS activation in rats following heat stimulus; assay type: in vivo, rat; conditions: compared to placebo group, FIG. 6, FIG. 7
Description: The methods of the invention may employ non-human mammals, e.g., rats, as the subjects, in which experimental therapeutic interventions are evaluated. […] The left panels show serial coronal slices through the brain. The overall level of activation was decreased in the gabapentin group compared to the placebo group. The right panels show differences in activation in specific circuitry known to be involved in pain processing that was affected in somatosensory regions (SI), emotional regions (nucleus accumbens—NAc), autonomic regions (hypothalamus), and endogenous analgesic regions (periaqueductal gray).

## O=C1CN=C(c2ccccc2Cl)c2cc([N+](=O)[O-])ccc2N1 [clonazepam]
Neuropathic pain
  Efficacy in neuropathic pain: no efficacy

## NCC1(CC(=O)O)CCCCC1 [gabapentin]
Healthy subjects
  fMRI signal change (CNS activation) following the heat stimulus: decreasing signal change
rats
  Overall level of CNS activation (fMRI): decreased
Neuropathic pain
  Efficacy in neuropathic pain: efficacy

## CN(C)CCCN1c2ccccc2CCc2ccccc21 [imipramine]
Healthy subjects
  fMRI signal change (CNS activation) following the heat stimulus: decreasing signal change
Neuropathic pain
  Efficacy in neuropathic pain: efficacy

## O=C(c1ccccc1)c1ccc2n1CCC2C(=O)O (stereo not shown) [ketorolac]
Neuropathic pain
  Efficacy in neuropathic pain: no efficacy

## CS(=O)(=O)c1ccc(C2=C(c3ccccc3)C(=O)OC2)cc1 [rofecoxib]
Neuropathic pain
  Efficacy in neuropathic pain: no efficacy

## CC1(C)O[C@@H]2[C@@H](CO[C@@]3(COS(N)(=O)=O)OC(C)(C)O[C@@H]23)O1 [topiramate]
Healthy subjects
  fMRI signal change (CNS activation) following the heat stimulus: decreasing signal change
Neuropathic pain
  Efficacy in neuropathic pain: efficacy
